The source of these data is US5310559A, “Device for controlled release and delivery to mammalian tissue of pharmacologically active agents incorporating a rate controlling member which comprises an alkylene-alkyl acrylate copolymer” (Hercon Laboratories Corporation, priority 1992, dated 1994).

The nature of data set [1]: Release of timolol from polymeric reservoir with and without ethylene-methyl acrylate membranes (Example IV). The class given is physicochemical. The text has this: FIG. 11 is a graph of timolol release versus time (time versus accumulation) from an ADMEX® 760 reservoir without the use of a control membrane as set forth in Example IV. The graph indicated by reference numeral 111 is the graph of mg/cm^2 of timolol release versus hours. The basis of this graph is more specifically set forth in Example IV.
FIG. 13 is a series of graphs (time versus flux) of timolol release rate through control membranes consisting of copolymers of ethylene and methyl acrylate; 5% and 7% with 1.25 mils thickness and 2.5 mils thickness as more specifically set forth in Example IV. The graph indicated by reference numeral 130 is the graph for a membrane having 7% methyl acrylate repeating monomeric units and a membrane of thickness 1.25 mils. The graph indicated by reference numeral 131 is the graph for use of a membrane containing 5% methyl acrylate repeating monomeric units with a thickness of 1.25 mils. The graph indicated by reference numeral 132 is the graph for the use of a membrane containing 7% methyl acrylate repeating monomeric units and having a thickness of 2.5 mils. The graph indicated by reference numeral 133 is the graph for a membrane containing 5% methyl acrylate repeating monomeric units and having a thickness of 2.5 mils.

The conditions of data set [2]: system of European Patent 186,071; cited from earlier work.
For data set [3] the following is noted: cited from earlier work.
The conditions of data set [4]: even at higher clonidine concentrations.
The nature of data set [5]: Flux through human skin from articles of FIG. 4 (Example V). To be noted: reservoir 5% drug.

Each structure is given as a SMILES string.

For `CC(C)(C)NC[C@H](O)COc1nsnc1N1CCOCC1` [timolol], in data set [1] (5% and 7% methyl acrylate, 1.25 and 2.5 mils thickness), the “release of timolol from the reservoir through ethylene-methyl acrylate membranes” value was “Relatively controlled and constant release of the drug was obtained for a period of seven days”. In data set [1] (in the absence of a membrane, ADMEX 760 reservoir), the “release of timolol from a polymeric reservoir into an aqueous sink” value is “very high and followed typical first order kinetics”. Moreover, in data set [1] (use of ethylene methyl acrylate membranes), the “release behavior of timolol from a polymeric reservoir” value is “altered by the use of ethylene methyl acrylate membranes”. The “irritation to the skin on transdermal application” value in data set [2] was “substantially no irritation to the skin”.
With `Clc1cccc(Cl)c1NC1=NCCN1` [clonidine], the “solubility in mineral oil” value in data set [3] is reported as “approximately 0.5 mg/ml”. Besides, in data set [4], the “effect of copolymeric EMA membranes on drug diffusion rates in the transdermal patch” value was “lower the drug diffusion rates in the transdermal patch even at higher clonidine concentrations”.
For the compound `CC(C)(C)NCC(O)c1cc(Cl)c(N)c(Cl)c1` (centres unmarked) [CLENBUTEROL], the “Flux Thru Human Skin” value is 15.1 ug/cm^2 /day in data set [5] (with membrane 1.25 mil EMA (11% MA)) and 34.5 ug/cm^2 /day in data set [5] (without membrane, 35% PVC resin, 60% ADMEX 760).
